According to the NIST ThermoML archive (doi:10.1021/je900974u):

How the values were obtained:
[1] = Molar enthalpy of transition or fusion; settings: Crystal; Adiabatic calorimetry
[2] = molar heat capacity at constant pressure; settings: 101.33 kPa, Liquid, Vacuum adiabatic calorimetry
[3] = for Triple point temperature: Crystal; for mass density: 101.33 kPa, Liquid, Pycnometric method

CCCCCCCC[n+]1ccn(C)c1.F[B-](F)(F)F [1-methyl-3-octylimidazolium tetrafluoroborate]
Settings | Molar enthalpy of transition or fusion [kcal/mol] | Triple point temperature [K]
[1] | 3.513 | –
[3] | – | 245.75

[2]
Settings | molar heat capacity at constant pressure [J/K/mol]
195.88 K | 466.3
197.4 K | 465.8
198.93 K | 465.5
200.46 K | 464.9
202.1 K | 464.6
203.86 K | 464.1
205.61 K | 463.8
207.37 K | 463.5
209.14 K | 463.2
210.91 K | 463.2
212.69 K | 463.2
214.47 K | 463.2
216.25 K | 463.5
218.04 K | 463.5
218.59 K | 463.5
219.83 K | 463.8
220.61 K | 463.8
221.62 K | 464.1
222.57 K | 464.1
223.42 K | 464.4
224.52 K | 464.6
225.22 K | 464.6
226.48 K | 464.9
227.02 K | 464.9
228.43 K | 465.5
228.83 K | 465.5
230.39 K | 466.1
230.63 K | 466.3
232.35 K | 466.3
234.3 K | 466.6
236.26 K | 467.5
238.22 K | 468
240.18 K | 468.6
242.14 K | 469.4
244.1 K | 470.3
246.06 K | 470.8
247.53 K | 471.7
248.02 K | 471.7
249.36 K | 472.5
249.99 K | 472.5
251.18 K | 473.1
251.95 K | 473.4
253 K | 473.7
253.91 K | 474.2
254.83 K | 474.5
255.87 K | 475.1
256.65 K | 475.4
257.83 K | 476.2
258.48 K | 476.2
260.3 K | 477.3
262.13 K | 478.2
263.95 K | 479
265.78 K | 480.1
267.6 K | 481
269.43 K | 482.1
271.26 K | 483
273.08 K | 483.8
274.91 K | 484.6
276.74 K | 486.1
278.57 K | 486.9
280.39 K | 488
282.22 K | 488.9
284.05 K | 490
285.87 K | 490.8
287.7 K | 492
289.53 K | 493.1
291.35 K | 494.2
293.18 K | 495.1
295 K | 496.2
296.83 K | 497.3
298.65 K | 498.2
300.48 K | 499.3
302.36 K | 500.4
304.29 K | 501.6
306.22 K | 502.7
308.16 K | 503.8
310.09 K | 504.9
312.02 K | 505.8
313.95 K | 507.2
315.89 K | 508.3
317.82 K | 509.4
319.75 K | 510.6
321.68 K | 512
323.62 K | 513.1
325.55 K | 514.2
327.48 K | 515.1
329.41 K | 516.5
331.34 K | 517.9
333.27 K | 519.3
335.19 K | 520.4
337.12 K | 521.8
339.05 K | 523
340.97 K | 524.4
342.9 K | 525.5
344.82 K | 526.6
346.75 K | 528
348.68 K | 529.5
350.6 K | 530.9
352.53 K | 532.3
354.45 K | 533.4
356.38 K | 534.8
358.3 K | 535.9
360.22 K | 537.3
362.14 K | 539
364.06 K | 539.9
365.98 K | 541.3
367.89 K | 542.7

CCOS(=O)(=O)[O-].CCn1cc[n+](C)c1 [1-ethyl-3-methylimidazolium ethyl sulfate]
[2]
Settings | molar heat capacity at constant pressure [J/K/mol]
191.13 K | 354.4
193.05 K | 354.6
194.98 K | 354.9
196.91 K | 355.1
198.84 K | 355.3
200.77 K | 355.7
202.71 K | 355.9
204.64 K | 356.3
206.57 K | 356.6
208.5 K | 356.9
210.44 K | 357.2
212.37 K | 357.5
214.3 K | 357.9
216.24 K | 358.3
218.18 K | 358.7
220.11 K | 359.2
222.05 K | 359.6
223.98 K | 360.1
225.92 K | 360.4
227.86 K | 360.9
229.8 K | 361.4
231.74 K | 362.1
233.68 K | 362.5
235.62 K | 363
237.56 K | 363.5
239.5 K | 364
241.43 K | 364.6
243.37 K | 365.1
245.32 K | 365.6
247.26 K | 366.2
249.2 K | 366.8
251.14 K | 367.4
253.08 K | 367.9
255.02 K | 368.5
256.96 K | 369.1
258.9 K | 369.9
260.85 K | 370.3
262.79 K | 371
264.73 K | 371.7
266.67 K | 372.1
268.62 K | 372.7
270.55 K | 373.4
272.5 K | 374.1
274.44 K | 374.8
276.38 K | 375.1
278.32 K | 375.6
280.25 K | 376.5
282.2 K | 377
284.14 K | 377.6
286.08 K | 378.2
288.03 K | 378.7
289.97 K | 379.4
291.91 K | 380.2
293.85 K | 381
295.79 K | 381.9
297.74 K | 382.6
299.68 K | 383.5
301.62 K | 384.2
303.56 K | 385
305.51 K | 385.9
307.45 K | 386.7
309.39 K | 387.5
311.33 K | 388.6
313.28 K | 389.5
315.22 K | 390.4
317.16 K | 391.4
319.11 K | 392.2
321.05 K | 393.2
322.99 K | 394
324.93 K | 395
326.88 K | 395.9
328.82 K | 396.9
330.77 K | 397.7
332.71 K | 398.5
334.66 K | 399.7
336.6 K | 400.5
338.54 K | 401.4
340.49 K | 402.7
342.43 K | 403.5
344.38 K | 404.4
346.32 K | 405.7
348.27 K | 406.7
350.21 K | 407.8
352.15 K | 408.8
354.1 K | 409.7
356.04 K | 410.8
357.98 K | 411.9
359.92 K | 412.8
361.86 K | 413.9
363.8 K | 414.9
365.75 K | 415.9
367.69 K | 416.8

CCC[n+]1ccn(C)c1.[Br-] [1-methyl-3-propylimidazolium bromide]
Settings | Molar enthalpy of transition or fusion [kcal/mol] | Triple point temperature [K]
[1] | 4.589 | –
[3] | – | 309.56

Settings | mass density [kg/m3] | molar heat capacity at constant pressure [J/K/mol]
[2], 222.57 K | – | 260
[2], 224.61 K | – | 260.5
[2], 226.66 K | – | 260.8
[2], 228.71 K | – | 261.3
[2], 230.76 K | – | 261.7
[2], 232.81 K | – | 262.1
[2], 234.85 K | – | 262.7
[2], 236.9 K | – | 263.1
[2], 238.95 K | – | 263.5
[2], 241 K | – | 264
[2], 243.05 K | – | 264.4
[2], 245.1 K | – | 264.9
[2], 247.15 K | – | 265.4
[2], 249.2 K | – | 266
[2], 251.25 K | – | 266.5
[2], 253.31 K | – | 267.1
[2], 255.36 K | – | 267.6
[2], 257.41 K | – | 268.2
[2], 259.46 K | – | 268.8
[2], 261.51 K | – | 269.5
[2], 263.56 K | – | 270
[2], 265.62 K | – | 270.6
[2], 267.67 K | – | 271.2
[2], 269.72 K | – | 271.8
[2], 271.77 K | – | 272.5
[2], 273.82 K | – | 273.2
[2], 275.87 K | – | 273.8
[2], 277.92 K | – | 274.5
[2], 279.98 K | – | 275.1
[2], 282.03 K | – | 275.8
[2], 284.08 K | – | 276.4
[2], 286.13 K | – | 277
[2], 288.18 K | – | 277.8
[2], 290.23 K | – | 278.4
[2], 292.28 K | – | 279.1
[2], 294.33 K | – | 279.7
[2], 296.39 K | – | 280.4
[2], 298.44 K | – | 281
[2], 300.49 K | – | 281.7
[2], 302.54 K | – | 282.4
[2], 304.59 K | – | 283
[2], 306.64 K | – | 283.7
[2], 308.7 K | – | 284.4
[2], 310.75 K | – | 285
[2], 312.8 K | – | 285.7
[2], 314.85 K | – | 286.4
[2], 316.91 K | – | 287.1
[2], 318.96 K | – | 287.7
[2], 321.01 K | – | 288.5
[2], 323.07 K | – | 289.2
[2], 325.12 K | – | 289.8
[2], 327.18 K | – | 290.6
[2], 329.23 K | – | 291.4
[2], 331.28 K | – | 292.1
[2], 333.34 K | – | 292.9
[2], 335.39 K | – | 293.6
[2], 337.45 K | – | 294.3
[2], 339.5 K | – | 295.1
[2], 341.56 K | – | 295.9
[2], 343.61 K | – | 296.7
[2], 345.67 K | – | 297.3
[2], 347.73 K | – | 298.2
[2], 349.78 K | – | 299.2
[2], 351.84 K | – | 299.9
[2], 353.9 K | – | 300.7
[2], 355.95 K | – | 301.4
[2], 358.01 K | – | 302.2
[2], 360.06 K | – | 303.1
[2], 362.12 K | – | 303.8
[2], 364.17 K | – | 304.6
[2], 366.23 K | – | 305.4
[2], 368.28 K | – | 306.3
[3], 302.71 K | 1355.9 | –
[3], 307.7 K | 1352.4 | –
[3], 312.7 K | 1348.9 | –
[3], 317.71 K | 1345.4 | –
[3], 322.7 K | 1341.9 | –
[3], 327.7 K | 1338.5 | –
[3], 332.7 K | 1335 | –
[3], 337.69 K | 1331.6 | –
[3], 342.68 K | 1328.2 | –
[3], 347.68 K | 1324.9 | –
[3], 352.67 K | 1321.6 | –
[3], 357.67 K | 1318.3 | –
